Results from patent US20230250253A1, “PLASTIC POLYMER BIOCONVERSION PROCESS” (GEORGIA STATE UNIVERSITY RESEARCH FOUNDATION, INC., priority 2020, published 2023).
Read-outs that look alike come from different tables or passages of the source. One block for each molecule: values may come before it.

Columns and labels:
[1] = tested on: Yarrowia lipolytica strain 78-003; experiment: FA profile on lipid- versus carbohydrate-containing media; type: cell-based; settings: for Number of different FAs produced: cells grown 120 h
Description: The hexadecane medium used for FA profile experiments consisted of: 5% v/v hexadecane, 5 g L^−1 yeast nitrogen broth (w/amino acids), 0.5 g L^−1 KH2PO4, and 0.25 g L^−1 Mg2SO4.
Starch medium used for FA profile experiments consisted of: 50 g L^−1 hydrolyzed starch, 2 g L^−1 yeast nitrogen broth (w/amino acids), 0.5 g L^−1 KH2PO4, and 0.25 g L^−1 Mg2SO4. The medium consisted of: 5.4 g L^−1 Tween- 80®, 1.25 g L^−1 (NH4)2SO4, 2.5 g L^−1 KH2PO4, and 0.830 g L^−1 MgSO4. Glucose (5%) medium used for FA profile experiments consisted of: 50 g L^−1 glucose and 3 g L^−1 yeast extract.
Intracellular Lipid Quantification: A modified Bligh and Dyer extraction (Bligh and Dyer 1959) was used to extract lipids from yeast samples. Post-fermentation OP4 culture was withdrawn and aliquoted into pre-weighed 50 ml conical tubes, and tubes were centrifuged, and pellets washed twice with 0.9% NaCl. Pellets were lyophilized overnight using a BT3.3 EL Lyophilizer Tabletop (SP Scientific, USA), weighed, and suspended in a 2:1 v/v chloroform: methanol mixture (5 ml per 50 mg cell dry weight) and sonicated using a Sonic Dismembrator (Fisher Scientific, USA) at 20 kHz, 20% amplitude with pulsing (40 s on, 20 s off for a total working time of 20 min). The chloroform layer was taken and dried under a nitrogen stream. Dried lipids were weighed and derivatized for GC/MS analysis via base-catalyzed esterification with 2.5 ml sodium methoxide (0.1 M) (Milanesio et al. 2013). The reaction was quenched using 200 μL sulfuric acid (>95%), and 2.5 ml hexane was added to each sample, which was then vortexed and centrifuged (5 min at 5000 rpm). 1.5 ml from the top hexane layer was withdrawn for GC/MS analysis.
GC/MS Analysis of Lipid Profile: The FA profile was characterized with an Agilent 7890A gas chromatograph (GC) attached to a 5977A mass spectrometer detector and equipped with an Agilent J&W HP-5 ms UI capillary column ([…]×0.25 mm×[…]). 1 μL samples were injected via an Agilent 7693 Automatic Liquid Sampler in splitless mode with an inlet temperature of 275° C., using helium as the carrier gas at a flow rate of 1 ml min·1. GC oven temperature was held at 60° C. for 1 min, and ramped to 100° C. (rate: 25° C. min·1; hold 1 min). The oven temperature was then increased to 200° C. (rate: 25° C. min^−1; hold 1 min). The oven temperature is then increased to 220° C. (rate: […]; hold 7 min) and then increased to an ending temperature of 300° C. (rate: 25° C. min·1; hold 2 min). A C8-C24 FAME analytical standard was used during sample analyses as an external standard (Sigma Aldrich, USA).

Y. lipolytica = settings: cited from earlier work
[2] = tested on: Yarrowia lipolytica ATCC strain 46482; experiment: Intracellular lipid quantification and GC/MS fatty acid profile, OP5 / PCOP5 medium; type: cell-based
Protocol: Fermentation Optimization: For fermentation optimization experiments, pH, inoculum density, osmolarity, or carbon-nitrogen ratio were altered. For pH experiments, OP5 medium pH was adjusted to 4.0, 5.0, or 6.0 using 2.0 M H2SO4 or 4.0 M NaOH. A Corning 320 pH meter (Corning, USA) was used to measure pH. For starting inoculum density experiments, OP5 medium was inoculated at an inoculum density of either 1.0, 3.0, or 6.0. Aliquots of 1 ml were retrieved from Y. lipolytica overnight culture and inoculum density was measured via absorbance at 600 nm. Based on absorbance readings, a volume of cells corresponding to the desired inoculum density was retrieved from the overnight culture and centrifuged at 4,000 rpm. Pelleted cells were washed twice with 50 mM PBS solution and used to inoculate OP5 medium. […] After the selected parameters were altered, shake flask fermentations were carried out for 120 hours, after which cells were processed and biomass and lipid product formation were analyzed as described below. […]
Component media experiments were carried out in 500 ml Erlenmeyer flasks containing 50 ml medium, and Y. lipolytica was inoculated at an inoculum density of 1.0. […] The supernatant was decanted and cells washed twice with 50 mM PBS before being lyophilized, weighed as described above, and lipids extracted and quantified as described in the following section. […]

[3] = tested on: Yarrowia lipolytica ATCC strain 46482; experiment: Y. lipolytica growth (biomass) in OP5 / PCOP5 medium, fermentation optimization; type: cell-based; settings: added to OP5 medium at 0.75, 1.5 and 3 g L^−1
Protocol: Polypropylene Growth Medium Preparation: OP5 medium is prepared as follows. 125-ml flat-bottomed borosilicate flasks were used to pyrolyze either virgin PP pellets or sheared postconsumer PP in 3 g batches at 540° C. for 195 minutes. The pyrolysis oil (at 15 g L^−1) was combined with: 5.4 g L^−1 Tween-80@, 5 g L^−1 yeast nitrogen base, 2.5 g L^−1 KH2PO4, 2.5 g L^−1 yeast extract, and 1.25 g L^−1 MgSO4 7H2O. The mixture was emulsified with a hand-held food-grade homogenizer. To compensate for the lack of oleic acid as an emulsifier, the homogenization time of OP5 medium was increased from 90 seconds (mixing time for OP4 medium) to 3 minutes. The resulting homogenized medium was autoclaved for 30 min at 121° C. and 15 psi.
Cultures and Fermentation Conditions: Yarrowia lipolytica ATCC strain 46482 was the strain used in this work. Overnight cultures were prepared from 1 ml 60% glycerol stocks of Y. lipolytica stored at −80° C. […] 1 ml aliquots of overnight cultures were withdrawn and used to measure yeast growth via absorbance. […]
Growth Measurements: Y. lipolytica growth measurements were taken spectrophotometrically and gravimetric measurements. Y. lipolytica culture aliquots of 1 ml were withdrawn, and growth was measured via optical density at 600 nm using an Eppendorf 6131 Biophotometer (Eppendorf, USA). […]

[4] = Precipitation of polyester-derived medium as a function of pH; type: physicochemical; settings: PTT1 medium, pH lowered
Protocol: Method: One g of PTT fiber is added to 4 ml of industrial grade ethanol (100 percent ethanol), 1 ml DMSO+0.41 g NaOH (18 percent w/v). The mixture is refluxed with heating […] for 45 −60 min; the reflux allows for heating of the mixture without the ethanol evaporating. The heating process to depolymerize the fibers is as follows: in the first 5 min, no stirring, then stir for 10 min while the fibers crystallize into a white substance. Continue the heating/reflux for the remainder of the prescribed time, then let the system cool. The product will be a bluish, slurry with white crystals; it may also contain residual carpet materials such as polypropylene, calcium carbonate and adhesive. The bluish liquid is the alcohol fraction, containing the alcohol soluble components derived from PTT (propanol, propanal). The white crystals are the TPA. The pH during reflux is 12 to 13 and the pH of slurry is 12-12.5. The slurry can be centrifuged to separate the alcohol and TPA fractions, or the slurry can be added to an aqueous solution adjusted to pH=11 or 12 using NaOH. This latter step is used to make PTT1 medium. In PTT1 medium, the contents as described are added to 1 liter of pH adjusted water, while mixing; the added compounds will not precipitate. The pH of the resulting solution is adjusted to 9.5, typically using HCl and NaOH. 300 mg/l yeast extract is added as a N source. […]

[5] = Y. lipolytica growing on the medium, this work
[6] = 250 g L^−1 substrate, strain with Poxl-6 and TGL4 inhibited

SMILES: O=C[C@H](O)[C@@H](O)[C@H](O)[C@H](O)CO [Glucose, glucose]
C 16:0 in C 16 and C 18 FA profile [1, 5]: 16 percentages
C 16:1 in C 16 and C 18 FA profile [1, 5]: 21 percentages
C 18:0 in C 16 and C 18 FA profile [1, 5]: 7 percentages
C 18:1 in C 16 and C 18 FA profile [1, 5]: 56 percentages
Number of different FAs produced [1]: 10

SMILES: OCC(O)CO [Glycerol, glycerol]
Lipid content (Y. lipolytica; [6]): 31 % CDW
Lipid yield (Y. lipolytica; [6]): 15.5 g/L
C 16:0 in C 16 and C 18 FA profile (Y. lipolytica; source Aggelis 2002): 15 percentages
C 16:1 in C 16 and C 18 FA profile (Y. lipolytica; source Aggelis 2002): 2 percentages
C 18:0 in C 16 and C 18 FA profile (Y. lipolytica; source Aggelis 2002): 11 percentages
C 18:1 in C 16 and C 18 FA profile (Y. lipolytica; source Aggelis 2002): 47 percentages
C 18:2 in C 16 and C 18 FA profile (Y. lipolytica; source Aggelis 2002): 21 percentages
C 16:0 in C 16 and C 18 FA profile (Y. lipolytica; source André et al. 2009): 12 percentages
C 16:1 in C 16 and C 18 FA profile (Y. lipolytica; source André et al. 2009): 11 percentages
C 18:0 in C 16 and C 18 FA profile (Y. lipolytica; source André et al. 2009): 9 percentages
C 18:1 in C 16 and C 18 FA profile (Y. lipolytica; source André et al. 2009): 57 percentages
C 18:2 in C 16 and C 18 FA profile (Y. lipolytica; source André et al. 2009): 11 percentages
C 16:0 in C 16 and C 18 FA profile (Y. lipolytica; source Makri et al. 2010): 13 percentages
C 16:1 in C 16 and C 18 FA profile (Y. lipolytica; source Makri et al. 2010): 17 percentages
C 18:0 in C 16 and C 18 FA profile (Y. lipolytica; source Makri et al. 2010): 6 percentages
C 18:1 in C 16 and C 18 FA profile (Y. lipolytica; source Makri et al. 2010): 55 percentages
C 18:2 in C 16 and C 18 FA profile (Y. lipolytica; source Makri et al. 2010): 7 percentages

SMILES: CCCCCCCCCCCCCCCC [Hexadecane, hexadecane]
C 16:0 in C 16 and C 18 FA profile [1, 5]: 46 percentages
C 16:1 in C 16 and C 18 FA profile [1, 5]: 15 percentages
C 18:0 in C 16 and C 18 FA profile [1, 5]: 10 percentages
C 18:1 in C 16 and C 18 FA profile [1, 5]: 25 percentages
C 18:2 in C 16 and C 18 FA profile [1, 5]: 4 percentages
Number of different FAs produced [1]: 5

SMILES: [Cl-].[Na+] [NaCl, sodium chloride]
Effect on fatty acid production or intracellular fatty acid content ([2]; added to OP5 medium at 0.75, 1.5 and 3 g L^−1): no significant impact
Effect on Y. lipolytica cell growth [3]: inhibited

pH at which it precipitates from the medium [4]: around 8.5
SMILES: O=C(O)c1ccc(C(=O)O)cc1 [TPA, terephthalic acid]

SMILES: CCCCCCCC/C=C\CCCCCCCC(=O)OCCOCC(OCCO)C1OCC(OCCO)C1OCCO (centres unmarked) [Tween® 80, polysorbate 80]
Fatty acids produced attributable to carbon from the component ([2]; growth in OP5 medium): 0.4 g/L
